Test results taken from publication PMC4286029 (Inflammation Research, 2014).

Experiments:
Assay type in all cases: biochemical
CDK1/cyclinB = target: T1, CDK1/cyclinB (Homo sapiens, UniProt P06493); assay: KinaseProfiler selectivity: CDK1/cyclinB
T1 construct: purchased Millipore Co. Ltd. (KinaseProfiler service)
Description: (§1) […]; The selectivity of JTE-052 for other kinases was assessed using KinaseProfiler™ (Millipore Co. Ltd.). […].

JNK3 = target: T2, JNK3 (Homo sapiens, UniProt P53779); assay: KinaseProfiler selectivity: JNK3
T2 construct: purchased Millipore Co. Ltd. (KinaseProfiler service)
T2 sequence (P53779 whole entry, species assumed): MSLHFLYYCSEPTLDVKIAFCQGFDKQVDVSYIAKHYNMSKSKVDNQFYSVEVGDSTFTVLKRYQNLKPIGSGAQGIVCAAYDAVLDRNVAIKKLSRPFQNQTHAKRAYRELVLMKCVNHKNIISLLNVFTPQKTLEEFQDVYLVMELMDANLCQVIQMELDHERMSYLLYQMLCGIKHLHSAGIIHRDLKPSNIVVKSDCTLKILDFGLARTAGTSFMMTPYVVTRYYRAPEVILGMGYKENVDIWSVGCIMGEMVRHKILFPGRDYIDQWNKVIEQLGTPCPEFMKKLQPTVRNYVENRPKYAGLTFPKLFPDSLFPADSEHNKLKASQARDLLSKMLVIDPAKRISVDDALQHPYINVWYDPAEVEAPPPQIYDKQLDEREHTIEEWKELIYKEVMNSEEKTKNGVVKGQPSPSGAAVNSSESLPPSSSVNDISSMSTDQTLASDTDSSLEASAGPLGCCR
Description: as §1

MEK1 = target: T3, MEK1 (Homo sapiens, UniProt Q02750); assay: KinaseProfiler selectivity: MEK1
T3 construct: purchased Millipore Co. Ltd. (KinaseProfiler service)
T3 sequence (Q02750 whole entry, species assumed): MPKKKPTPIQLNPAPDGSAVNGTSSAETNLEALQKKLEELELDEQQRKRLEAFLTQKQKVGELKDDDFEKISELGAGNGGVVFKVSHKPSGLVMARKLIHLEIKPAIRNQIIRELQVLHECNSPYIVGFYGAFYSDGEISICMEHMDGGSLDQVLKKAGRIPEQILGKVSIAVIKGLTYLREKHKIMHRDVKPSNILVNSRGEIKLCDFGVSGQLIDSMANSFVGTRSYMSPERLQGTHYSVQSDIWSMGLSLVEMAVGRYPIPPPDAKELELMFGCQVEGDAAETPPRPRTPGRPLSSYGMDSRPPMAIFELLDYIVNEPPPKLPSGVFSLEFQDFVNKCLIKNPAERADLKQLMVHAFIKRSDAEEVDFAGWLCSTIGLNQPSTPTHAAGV
Description: as §1

Met = target: T4, Met (Homo sapiens, UniProt P08581); assay: KinaseProfiler selectivity: Met
T4 construct: purchased Millipore Co. Ltd. (KinaseProfiler service)
T4 sequence (P08581 25-1390): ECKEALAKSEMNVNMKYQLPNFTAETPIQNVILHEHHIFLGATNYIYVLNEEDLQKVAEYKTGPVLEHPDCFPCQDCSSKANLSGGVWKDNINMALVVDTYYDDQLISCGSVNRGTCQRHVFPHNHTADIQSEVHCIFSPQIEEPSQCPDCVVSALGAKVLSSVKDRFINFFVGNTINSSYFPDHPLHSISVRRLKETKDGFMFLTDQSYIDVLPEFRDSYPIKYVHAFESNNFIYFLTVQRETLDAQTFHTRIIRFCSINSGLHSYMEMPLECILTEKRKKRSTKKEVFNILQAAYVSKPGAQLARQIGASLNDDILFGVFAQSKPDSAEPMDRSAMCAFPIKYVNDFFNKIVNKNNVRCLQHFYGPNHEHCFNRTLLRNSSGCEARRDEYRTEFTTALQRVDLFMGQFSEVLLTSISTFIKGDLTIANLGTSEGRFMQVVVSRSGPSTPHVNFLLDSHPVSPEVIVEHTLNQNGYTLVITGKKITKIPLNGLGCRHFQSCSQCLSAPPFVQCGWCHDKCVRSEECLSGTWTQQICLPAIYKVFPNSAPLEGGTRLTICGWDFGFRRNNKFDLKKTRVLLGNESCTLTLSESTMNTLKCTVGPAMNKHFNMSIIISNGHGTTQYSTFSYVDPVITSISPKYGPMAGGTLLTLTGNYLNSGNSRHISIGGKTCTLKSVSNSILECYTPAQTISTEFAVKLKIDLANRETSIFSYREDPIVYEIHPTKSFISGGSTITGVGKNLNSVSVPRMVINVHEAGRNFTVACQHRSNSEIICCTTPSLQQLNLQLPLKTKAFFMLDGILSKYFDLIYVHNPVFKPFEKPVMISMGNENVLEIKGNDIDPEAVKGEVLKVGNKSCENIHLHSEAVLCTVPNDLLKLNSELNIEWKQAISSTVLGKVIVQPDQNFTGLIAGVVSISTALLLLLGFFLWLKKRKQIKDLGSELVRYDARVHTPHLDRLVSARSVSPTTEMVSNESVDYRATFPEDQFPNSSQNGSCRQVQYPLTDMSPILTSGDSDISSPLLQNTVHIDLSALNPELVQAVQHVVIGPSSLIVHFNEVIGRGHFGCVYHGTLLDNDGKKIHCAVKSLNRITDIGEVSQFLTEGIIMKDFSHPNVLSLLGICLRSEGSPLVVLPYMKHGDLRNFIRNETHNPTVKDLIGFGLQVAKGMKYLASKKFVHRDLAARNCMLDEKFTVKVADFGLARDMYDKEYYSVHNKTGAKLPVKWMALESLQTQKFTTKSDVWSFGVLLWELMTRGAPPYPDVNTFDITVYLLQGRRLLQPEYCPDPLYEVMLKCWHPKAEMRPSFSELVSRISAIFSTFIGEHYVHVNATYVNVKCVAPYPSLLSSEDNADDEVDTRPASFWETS
Description: as §1

PKA = target: T5, PKA (Homo sapiens, UniProt P17612); assay: KinaseProfiler selectivity: PKA
T5 construct: purchased Millipore Co. Ltd. (KinaseProfiler service)
Description: as §1

PKCβI = target: T6, PKCβI (Homo sapiens, UniProt P05771); assay: KinaseProfiler selectivity: PKCβI
T6 construct: purchased Millipore Co. Ltd. (KinaseProfiler service)
T6 sequence (P05771 whole entry): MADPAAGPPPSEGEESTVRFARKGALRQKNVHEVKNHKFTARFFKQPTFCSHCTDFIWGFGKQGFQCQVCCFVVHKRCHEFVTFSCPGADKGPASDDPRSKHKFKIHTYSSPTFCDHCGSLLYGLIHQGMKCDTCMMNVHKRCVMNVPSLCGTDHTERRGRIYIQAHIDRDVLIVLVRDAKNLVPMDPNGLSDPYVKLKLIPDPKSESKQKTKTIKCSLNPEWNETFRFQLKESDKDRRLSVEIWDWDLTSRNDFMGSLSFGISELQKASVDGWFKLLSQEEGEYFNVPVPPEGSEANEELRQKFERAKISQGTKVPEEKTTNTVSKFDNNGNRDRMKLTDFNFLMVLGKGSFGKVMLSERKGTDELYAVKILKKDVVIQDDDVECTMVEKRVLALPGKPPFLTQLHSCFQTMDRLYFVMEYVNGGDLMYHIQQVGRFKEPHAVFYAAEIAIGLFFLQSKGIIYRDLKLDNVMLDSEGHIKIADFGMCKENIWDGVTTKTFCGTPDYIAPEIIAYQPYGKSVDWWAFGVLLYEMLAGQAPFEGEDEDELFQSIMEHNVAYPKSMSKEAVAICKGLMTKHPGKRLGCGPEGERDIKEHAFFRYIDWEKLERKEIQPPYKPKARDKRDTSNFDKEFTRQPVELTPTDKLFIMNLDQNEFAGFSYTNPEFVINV
Description: as §1

SGK = target: T7, SGK (Homo sapiens, UniProt O00141); assay: KinaseProfiler selectivity: SGK
T7 construct: purchased Millipore Co. Ltd. (KinaseProfiler service)
T7 sequence (O00141 whole entry): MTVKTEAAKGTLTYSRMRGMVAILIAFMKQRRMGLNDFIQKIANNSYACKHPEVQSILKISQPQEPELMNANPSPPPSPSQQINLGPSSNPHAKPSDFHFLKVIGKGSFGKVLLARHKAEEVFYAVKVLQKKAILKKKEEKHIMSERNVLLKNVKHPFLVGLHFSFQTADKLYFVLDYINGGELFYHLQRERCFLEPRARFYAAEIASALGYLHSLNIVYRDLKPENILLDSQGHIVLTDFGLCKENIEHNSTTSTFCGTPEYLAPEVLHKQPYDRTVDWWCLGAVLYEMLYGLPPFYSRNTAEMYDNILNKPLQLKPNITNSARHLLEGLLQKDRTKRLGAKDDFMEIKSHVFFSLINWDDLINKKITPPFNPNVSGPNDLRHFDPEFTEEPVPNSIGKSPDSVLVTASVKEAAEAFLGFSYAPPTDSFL
Description: as §1

Syk = target: T8, Syk (Homo sapiens, UniProt P43405); assay: KinaseProfiler selectivity: Syk
T8 construct: purchased Millipore Co. Ltd. (KinaseProfiler service)
Description: as §1

ZAP-70 = target: T9, ZAP-70 (Homo sapiens, UniProt P43403); assay: KinaseProfiler selectivity: ZAP-70
T9 construct: purchased Millipore Co. Ltd. (KinaseProfiler service)
T9 sequence (P43403 whole entry): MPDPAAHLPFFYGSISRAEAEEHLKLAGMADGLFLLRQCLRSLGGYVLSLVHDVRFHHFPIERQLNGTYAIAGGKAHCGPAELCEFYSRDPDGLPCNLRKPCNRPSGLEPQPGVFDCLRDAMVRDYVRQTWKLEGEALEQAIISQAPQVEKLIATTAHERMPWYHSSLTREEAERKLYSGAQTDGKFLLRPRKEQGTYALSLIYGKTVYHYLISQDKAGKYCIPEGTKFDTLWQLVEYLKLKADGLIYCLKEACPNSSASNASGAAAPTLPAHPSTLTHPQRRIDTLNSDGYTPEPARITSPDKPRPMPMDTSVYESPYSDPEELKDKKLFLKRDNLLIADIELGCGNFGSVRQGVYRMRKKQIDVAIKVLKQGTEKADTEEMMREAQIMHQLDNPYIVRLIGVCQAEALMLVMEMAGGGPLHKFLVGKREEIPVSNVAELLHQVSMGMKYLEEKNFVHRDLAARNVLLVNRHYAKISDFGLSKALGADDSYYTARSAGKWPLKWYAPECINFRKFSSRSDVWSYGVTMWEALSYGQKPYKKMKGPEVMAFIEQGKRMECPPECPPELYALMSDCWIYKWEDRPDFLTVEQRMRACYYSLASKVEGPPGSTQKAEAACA
Description: as §1

Measured: IC50

T1 sequence (P06493 whole entry, species assumed): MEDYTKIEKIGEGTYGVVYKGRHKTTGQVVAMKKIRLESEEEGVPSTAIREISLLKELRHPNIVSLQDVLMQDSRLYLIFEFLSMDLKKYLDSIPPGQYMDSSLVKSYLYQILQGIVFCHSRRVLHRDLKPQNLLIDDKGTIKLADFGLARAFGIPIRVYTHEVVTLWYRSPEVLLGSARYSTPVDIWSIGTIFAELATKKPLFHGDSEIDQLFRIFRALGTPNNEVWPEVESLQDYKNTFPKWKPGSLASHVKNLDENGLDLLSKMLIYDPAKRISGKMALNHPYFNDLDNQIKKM
T1 sequence (P14635 whole entry partner, species assumed): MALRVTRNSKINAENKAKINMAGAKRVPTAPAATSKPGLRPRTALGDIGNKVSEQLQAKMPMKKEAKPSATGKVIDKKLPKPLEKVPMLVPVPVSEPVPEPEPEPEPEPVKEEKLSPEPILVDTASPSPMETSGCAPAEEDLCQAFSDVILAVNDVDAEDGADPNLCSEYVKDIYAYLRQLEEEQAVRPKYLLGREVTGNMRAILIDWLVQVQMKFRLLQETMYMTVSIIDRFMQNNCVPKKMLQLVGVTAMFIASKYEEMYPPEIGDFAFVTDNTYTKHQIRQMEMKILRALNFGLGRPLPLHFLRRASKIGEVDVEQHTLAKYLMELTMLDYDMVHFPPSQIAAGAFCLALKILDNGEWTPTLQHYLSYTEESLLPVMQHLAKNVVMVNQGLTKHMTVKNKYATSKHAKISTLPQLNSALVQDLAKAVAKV

C[C@H]1CN(C(=O)CC#N)[C@]12CCN(c1ncnc3[nH]ccc13)C2 [JTE-052]
> 1000 nM: CDK1/cyclinB | JNK3 | MEK1 | Met | PKA | PKCβI | SGK | Syk | ZAP-70
